Results as given in publication PMC6009892, “A novel series of pyrazole-platinum(II) complexes as potential anti-cancer agents that induce cell cycle arrest and apoptosis in breast cancer cells” (Journal of Enzyme Inhibition and Medicinal Chemistry, 2018).

What was measured:
[1] = system: human G1/S-specific cyclin D1 in MDA-MB-231 cells; assay: Cyclin D1 ELISA in cell lysates, MDA-MB-231; type: cell-based; settings: MDA-MB-231, 20 μM, 24 h
Description: (§1) Cell lysates: Briefly, trypsinised cells were washed three times with cold PBS and centrifuged at 1000 g for 5 min at 4 °C. The cells (1 × 10^6) were suspended in lysis buffer for whole cell lysates. After centrifugation, the supernatants were frozen immediately at −70 °C. The concentration of human G1/S-specific cyclin D1 was measured. Cells without addition of compounds were treated as controls.
(§2) Determination of human G1/S-specific cyclin D1: The high sensitivity assay kit (EIAab) was used to determine the concentration of human G1/S-specific cyclin D1 in cell lysates. The microtiter plate provided in this kit has been pre-coated with an antibody specific to cyclin D1. Standards and samples were added to the appropriate microtiter plate wells. After 2 h of incubation at 37 °C, the plate was incubated with biotin-conjugated antibody for 1 h at 37 °C. Then microplate wells were aspirated and washed three times and then incubated with avidin conjugated to horseradish peroxidase (HRP). Then, a TMB substrate solution was added to each well. […] The enzyme–substrate reaction was terminated by the addition of a sulfuric acid solution and the color change was measured spectrophotometrically at a wavelength of 450 nm ± 2 nm. The concentration of cyclin D1 in the samples was determined by comparing the O.D. of the samples to the standard curve.

[2] = system: human G1/S-specific cyclin D1 in MCF-7 cells; assay: Cyclin D1 ELISA in cell lysates, MCF-7; type: cell-based; settings: MCF-7, 20 μM, 24 h; untreated cells 2.6 ng/ml
Description: as §1, §2

[3] = system: MDA-MB-231 breast cancer cells; assay: Mitochondrial membrane potential JC-1, MDA-MB-231; type: cell-based, human; settings: MDA-MB-231, 20 μM, 24 h; untreated 5.8%
Description: Disruption of the MMP was assessed using the lipophilic cationic probe 5,5′,6,6′-tetrachloro-1,1′,3,3′-tetraethylbenzimidazolcarbocyanine iodide (JC-1 MitoScreen kit; BD Biosciences Systems, San Jose, CA), as described previously. Briefly, unfixed cells were washed and re-suspended in PBS supplemented with 10 µg/ml of JC-1. Cells were then incubated for 15 min at room temperature in the dark, washed, and re-suspended in PBS for immediate BD FACSCanto II flow cytometry analysis. The percentage of cells with disrupted MMP was calculated using FACSDiva software (both from BD Biosciences Systems, San Jose, CA).

| SMILES | concentration of cyclin D1 [1] | concentration of cyclin D1 [2] | percent of cells with decrease ΔΨm [3] |
| --- | --- | --- | --- |
| Cc1ccn[nH]1.Cc1ccn[nH]1.Cc1ccn[nH]1.Cc1ccn[nH]1.Cl.Cl.Cl.Cl.N=C(N)c1ccc(N=N[N]([Pt])c2ccc(C(=N)N)cc2)cc1.N=C(N)c1ccc(N=N[N]([Pt])c2ccc(C(=N)N)cc2)cc1.O.O [PtPz5, [Pt2(5-methylpyrazole)4(berenil)2]·4HCl·2H2O] | 0.7 ng/mL | – | – |
| Cc1cc(C)[n+]([Pt-2]2([n+]3c(C)cc(C)n3CO)[N](c3ccc(C(=N)N)cc3)N=[N+](c3ccc(C(=N)N)cc3)[Pt-2]([n+]3c(C)cc(C)n3CO)([n+]3c(C)cc(C)n3CO)[N](c3ccc(C(=N)N)cc3)N=[N+]2c2ccc(C(=N)N)cc2)n1CO.Cl.Cl.Cl.Cl.O.O [PtPz1, [Pt2(N-hydroxymethyl-3,5-dimethylpyrazole)4(berenil)2]·4HCl·2H2O] | – | 0.8 ng/mL | 90.7% |
